Consider five compounds from US20070059260A1, “Benzyl-1,3-thiazolidine-2,4-dione compounds for promoting and/or inducing and/or stimulating the pigmentation of keratin materials and/or for limiting their depigmentation and/or whitening” (L'OREAL, priority 2005, published 2007).

A word on the melting point: it is the temperature of the solid-liquid transition.

One data set concerns the target T1, Type-1 15-PGDH (Homo sapiens, UniProt P15428).
T1 construct: made in house
T1 sequence (P15428 1-266): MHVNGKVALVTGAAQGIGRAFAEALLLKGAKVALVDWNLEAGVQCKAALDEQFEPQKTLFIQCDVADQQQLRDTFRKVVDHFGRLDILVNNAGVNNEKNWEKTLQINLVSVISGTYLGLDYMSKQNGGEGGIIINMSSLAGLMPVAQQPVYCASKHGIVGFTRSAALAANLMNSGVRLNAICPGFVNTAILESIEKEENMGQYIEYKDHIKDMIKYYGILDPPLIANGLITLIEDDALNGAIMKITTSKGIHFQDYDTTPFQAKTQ
Briefly: Test on type-1 15-PGDH (spectrophotometric, NAD/PGE2, 340 nm). Type of data set: biochemical. Particulars: concentration reducing enzymatic activity of 15-PGDH by 50%; 37° C., pH 7.4 Tris buffer, 1.5 mM β-NAD, 50 μM Prostaglandin E2; read-out: IC50dh or % inhibition at 100 μM. As for the experimental part:
The enzyme 15-PGDH is obtained as described in FR 02/05067 filed in the name of L'Oreal, as a suspension in a medium adjusted to a concentration of 0.3 mg/mL and then blocked at −80° C. For the purposes of the test, this suspension is thawed and stored in ice.
In parallel, a 100 mM, pH 7.4 Tris buffer containing 0.1 mM of dithiothreitol (D5545, Sigma-Aldrich, L'isle D'Abeau Chesne, BP 701, 38297, Saint Quentin Fallavier), 1.5 mM of β-NAD (N6522, Sigma-Aldrich, L'isle D'Abeau Chesne, BP 701, 38297, Saint Quentin Fallavier), and 50 μM of Prostaglandin E2 (P4172, Sigma-Aldrich, L'isle D'Abeau Chesne, BP 701, 38297, Saint Quentin Fallavier) is prepared.
0.965 ml of this buffer (brought to 37° C. beforehand) is introduced into the cuvette of a spectrophotometer (Perkin-Elmer, Lambda 2) thermostatically maintained at 37° C., the measuring wavelength of which is set at 340 nm. 0.035 mL of enzymatic suspension at 37° C. is introduced into the cuvette concomitantly with the recording (corresponding to an increase in the optical density at 340 nm). The maximum reaction rate is recorded.
The test values (containing the compounds of formula (I)) are compared with the control value (without compound of formula (I)); the results indicated represent either the percentage inhibition of the enzymatic activity of 15-PGDH for a given concentration of compound of formula (I), or the concentration at which the compound of formula (I) reduces the enzymatic activity of 15-PGDH by 50%, namely IC50dh.

Structures are written as SMILES.

Turning to `O=C1NC(=O)C(Cc2ccccc2Oc2ccc(Cl)cc2Cl)S1` (centres unmarked) [Compound 2], on Type-1 15-PGDH, the IC50 was determined as 1210 nM.

Regarding `O=C1NC(=O)C(Cc2ccccc2Oc2ccccc2)S1` (centres unmarked) [Compound 3], the IC50 on Type-1 15-PGDH was found to be 2750 nM.

Take `CC(C)(C)c1ccc(Oc2ccccc2CC2SC(=O)NC2=O)cc1` (centres unmarked) [Compound 4, 5-[2-(4-tert-Butylphenoxy)benzyl]-1,3-thiazolidine-2,4-dione]: the IC50 on Type-1 15-PGDH was 400 nM.

Consider `CC(C)(C)c1ccc(Oc2cccc(CC3SC(=O)NC3=O)c2)cc1` (centres unmarked) [Compound 5], for which the IC50 on Type-1 15-PGDH is 580 nM.

`O=C1NC(=O)C(Cc2ccccc2Oc2ccccc2)S1` (centres unmarked) [Example 1, 5-(2-phenoxybenzyl)-1,3-thiazolidine-2,4-dione]: the melting point lay in the range of 84 to 85 °C.
